Values after ≈ are worked out from the molar mass of the structure shown.
How the values were obtained:
Assay in all cases: In vitro determination of minimum inhibitory concentration (MIC), serial dilution
Format in all cases: cell-based
Absidia ramosa = conditions: Lichtheimia ramosa, 336 h, pH 6, Absidia ramosa; pH 6.0, 22° C., 14 days
Procedure: (§1) The antimycotic activities of the compounds were measured by in vitro determination of the minimum inhibitory concentration (MIC) for yeasts, molds and dermatophytes.
(§2) 6 dermatophytes, 2 yeasts and 4 molds were used for testing with fungi, as follows:
(§3) The minimum inhibitory concentration (MIC) was determined in serial dilution tests in test tubes. The volume of the liquid nutrient medium in each test tube was 4.5 ml.
(§4) The substances were dissolved in DMSO and diluted with sterile distilled water to 10 concentrations (100, 50, 25, 12.5, 6.25, 3.12, 1.56, 0.78, 0.39 and 0.19 μg/ml). 0.5 ml of each of these dilution steps was added to liquid nutrient medium. Thus, a constant concentration of solvent in all the nutrient media was ensured, irrespective of the active compound concentration.
(§5) A comparison solution which contained only the solvent in appropriate concentration was included when carrying out each of the tests.
(§6) The individual strains were maintained on Sabouraud/beerwort agar slants and, before they were used in a test, they underwent a passage on a modified Sabouraud liquid nutrient medium. The strains were then harvested, washed and converted into a suspension of McFaerland 3 in the case of yeasts and molds and of McFaerland 4-5 in the case of dermatophytes.
(§7) The amount of material inoculated (inoculum) was 100 μl/test tube (inoculated densities: yeasts about 10^3 /ml, molds about 10^4 /ml, dermatophytes about 10^4 /ml). The pH of the liquid nutrient medium was 6.0. After inoculation had taken place the fungi were incubated at 22° C. for 14 days.
(§8) The MIC was then determined. The concentration step at which growth was no longer visible on macroscopic inspection was used for the determination of the MIC. The comparison substance used was 1-(2-(2,4-dichlorophenyl)-2-(2,4-dichlorophenylmethoxy)ethyl)-1H-imidazole(compound A).

Aspergillus fumigatus = conditions: 20160 min, pH 6
Procedure: as §1, §2, §3, §4, §5, §6, §7, §8

Candida albicans = conditions: 336 h, pH 6, Candida albicans, pH 6.0, 22° C., 14 days, read-out: MIC C.alb
Procedure: as §1, §2, §3, §4, §5, §6, §7, §8

Candida tropicalis = conditions: 336 h, pH 6, Candida tropicalis, pH 6.0, 22° C., 14 days, read-out: MIC C.trop
Procedure: as §1, §2, §3, §4, §5, §6, §7, §8

Epidermophyton floccosum = conditions: 336 h, pH 6, Epidermophyton floccosum, pH 6.0, 22° C., 14 days
Procedure: as §1, §2, §3, §4, §5, §6, §7, §8

Microsporum canis = conditions: 336 h, pH 6, Microsporum canis, pH 6.0, 22° C., 14 days
Procedure: as §1, §2, §3, §4, §5, §6, §7, §8

Microsporum gypseum = conditions: Nannizzia gypsea, 336 h, pH 6, Microsporum gypseum; pH 6.0, 22° C., 14 days; read-out: MIC Mi.gyp
Procedure: as §1, §2, §3, §4, §5, §6, §7, §8

Mucor mucedo minus = conditions: Mucor mucedo, 336 h, pH 6, Mucor mucedo minus; pH 6.0, 22° C., 14 days
Procedure: as §1, §2, §3, §4, §5, §6, §7, §8

Mucor mucedo plus = conditions: Mucor mucedo, 336 h, pH 6, Mucor mucedo plus; pH 6.0, 22° C., 14 days
Procedure: as §1, §2, §3, §4, §5, §6, §7, §8

[1] = system: Trichophyton mentagrophytes; conditions: 336 h, pH 6, Trichophyton mentagrophytes, pH 6.0, 22° C., 14 days
Procedure: as §1, §2, §3, §4, §5, §6, §7, §8

Trichophyton rubrum = conditions: 336 h, pH 6, Trichophyton rubrum, pH 6.0, 22° C., 14 days
Procedure: as §1, §2, §3, §4, §5, §6, §7, §8

Trichophyton verrucosum = conditions: 336 h, pH 6, Trichophyton verrucosum, pH 6.0, 22° C., 14 days
Procedure: as §1, §2, §3, §4, §5, §6, §7, §8

| Structure (SMILES) | MIC (Absidia ramosa) | MIC Asp.fu. (Aspergillus fumigatus) | MIC (Candida albicans) | MIC (Candida tropicalis) | MIC (Epidermophyton floccosum) | MIC (Microsporum canis) | MIC (Microsporum gypseum) | MIC (Mucor mucedo minus) | MIC (Mucor mucedo plus) | MIC [1] | MIC (Trichophyton rubrum) | MIC (Trichophyton verrucosum) |
| --- | --- | --- | --- | --- | --- | --- | --- | --- | --- | --- | --- | --- |
| Clc1ccc(SCCCCCNC(Cn2ccnc2)c2ccc(Cl)cc2Cl)cc1 (stereo not drawn) [Compound 132] | 6.25 µg/mL (≈ 13.3 µM) | 6,25 μg/ml | 6.25 µg/mL (≈ 13.3 µM) | 3.12 µg/mL (≈ 6.65 µM) | 0.78 µg/mL (≈ 1.66 µM) | 12.5 µg/mL (≈ 26.7 µM) | 3.12 µg/mL (≈ 6.65 µM) | 3.12 µg/mL (≈ 6.65 µM) | 0.78 µg/mL | 0.78 µg/mL (≈ 1.66 µM) | 3.12 µg/mL (≈ 6.65 µM) | 6.25 µg/mL (≈ 13.3 µM) |
| Clc1ccc(SCCCNC(Cn2ccnc2)c2cccc3ccccc23)cc1 (stereo not drawn) [Compound 139] | 3.12 µg/mL (≈ 7.39 µM) | 3,12 μg/ml | 3.12 µg/mL (≈ 7.39 µM) | 12.5 µg/mL (≈ 29.6 µM) | 3.12 µg/mL (≈ 7.39 µM) | 1.56 µg/mL (≈ 3.7 µM) | 1.56 µg/mL (≈ 3.7 µM) | 3.12 µg/mL (≈ 7.39 µM) | 3.12 µg/mL | 3.12 µg/mL (≈ 7.39 µM) | 1.56 µg/mL (≈ 3.7 µM) | 1.56 µg/mL (≈ 3.7 µM) |
| Cc1ccc(OCCCNC(Cn2cncn2)c2ccc(Cl)cc2Cl)cc1 (stereo not drawn) [Compound 52] | 100 µg/mL (≈ 247 µM) | 6,25 μg/ml | 12.5 µg/mL (≈ 30.8 µM) | 6.25 µg/mL (≈ 15.4 µM) | 3.12 µg/mL (≈ 7.7 µM) | 3.12 µg/mL (≈ 7.7 µM) | 3.12 µg/mL (≈ 7.7 µM) | 12.5 µg/mL (≈ 30.8 µM) | 3.12 µg/mL | 6.25 µg/mL (≈ 15.4 µM) | 3.12 µg/mL (≈ 7.7 µM) | 3.12 µg/mL (≈ 7.7 µM) |
| CN(CCCSCc1ccc(Cl)cc1)C(Cn1ccnc1)c1ccc(Cl)cc1Cl (stereo not drawn) [Compound 3, 1-(2-(2,4-Dichlorophenyl)-2-(N-methyl-3-(4-chlorobenzylthio)propylamino)ethyl)-1H-imidazole] | 50 µg/mL (≈ 107 µM) | 25,0 μg/ml | 3.12 µg/mL (≈ 6.65 µM) | 0.78 µg/mL (≈ 1.66 µM) | 1.56 µg/mL (≈ 3.33 µM) | 1.56 µg/mL (≈ 3.33 µM) | 6.25 µg/mL (≈ 13.3 µM) | 6.25 µg/mL (≈ 13.3 µM) | 6.25 µg/mL | 6.25 µg/mL (≈ 13.3 µM) | 6.25 µg/mL (≈ 13.3 µM) | 6.25 µg/mL (≈ 13.3 µM) |
| Clc1ccc(SCCNC(Cn2cncn2)c2ccc(Cl)cc2Cl)cc1 (stereo not drawn) [Compound 33] | 25 µg/mL (≈ 58.4 µM) | 25,0 μg/ml | 12.5 µg/mL (≈ 29.2 µM) | 6.25 µg/mL (≈ 14.6 µM) | 3.12 µg/mL (≈ 7.29 µM) | 6.25 µg/mL (≈ 14.6 µM) | 6.25 µg/mL (≈ 14.6 µM) | 3.12 µg/mL (≈ 7.29 µM) | 6.25 µg/mL | 25 µg/mL (≈ 58.4 µM) | 3.12 µg/mL (≈ 7.29 µM) | 3.12 µg/mL (≈ 7.29 µM) |
| Clc1ccc(OCCCCNC(Cn2cncn2)c2ccc(Cl)cc2Cl)cc1 (stereo not drawn) [Compound 126] | 100 µg/mL (≈ 227 µM) | 25,0 μg/ml | 25 µg/mL (≈ 56.8 µM) | 12.5 µg/mL (≈ 28.4 µM) | 12.5 µg/mL (≈ 28.4 µM) | 25 µg/mL (≈ 56.8 µM) | 3.12 µg/mL (≈ 7.09 µM) | 25 µg/mL (≈ 56.8 µM) | 12.5 µg/mL | 50 µg/mL (≈ 114 µM) | 6.25 µg/mL (≈ 14.2 µM) | 3.12 µg/mL (≈ 7.09 µM) |
| CN(CCCOc1ccc(Br)cc1)C(Cn1cncn1)c1ccc(Cl)cc1Cl (stereo not drawn) [Compound 62] | 50 µg/mL (≈ 103 µM) | 1,56 μg/ml | 6.25 µg/mL (≈ 12.9 µM) | 3.12 µg/mL (≈ 6.44 µM) | 0.78 µg/mL (≈ 1.61 µM) | 3.12 µg/mL (≈ 6.44 µM) | 3.12 µg/mL (≈ 6.44 µM) | 3.12 µg/mL (≈ 6.44 µM) | 3.12 µg/mL | 1.56 µg/mL (≈ 3.22 µM) | 3.12 µg/mL (≈ 6.44 µM) | 1.56 µg/mL (≈ 3.22 µM) |
| Fc1ccc(OCCCNC(Cn2ccnc2)c2ccc(Cl)cc2Cl)cc1 (stereo not drawn) [Compound 56] | 6.25 µg/mL (≈ 15.3 µM) | 0,78 μg/ml | 12.5 µg/mL (≈ 30.6 µM) | 3.12 µg/mL (≈ 7.64 µM) | 6.25 µg/mL (≈ 15.3 µM) | 12.5 µg/mL (≈ 30.6 µM) | 3.12 µg/mL (≈ 7.64 µM) | 0.78 µg/mL (≈ 1.91 µM) | 1.56 µg/mL | 3.12 µg/mL (≈ 7.64 µM) | 1.56 µg/mL (≈ 3.82 µM) | 1.56 µg/mL (≈ 3.82 µM) |
| Clc1ccc(SCCCNC(Cn2ccnc2)c2ccc(Br)cc2)cc1 (stereo not drawn) [Compound 100] | 6.25 µg/mL (≈ 13.9 µM) | 6,25 μg/ml | 3.12 µg/mL (≈ 6.92 µM) | 12.5 µg/mL (≈ 27.7 µM) | 6.25 µg/mL (≈ 13.9 µM) | 6.25 µg/mL (≈ 13.9 µM) | 6.25 µg/mL (≈ 13.9 µM) | 25 µg/mL (≈ 55.5 µM) | 12.5 µg/mL | 6.25 µg/mL (≈ 13.9 µM) | 3.12 µg/mL (≈ 6.92 µM) | 6.25 µg/mL (≈ 13.9 µM) |
